The target in the first test is His-tagged CRBN-DDB1 complex (Homo sapiens (Human), UniProt Q96SW2). Kind of test: Time-resolved fluorescence resonance energy transfer (TR-FRET) assay, displacement of Cy5-labeled thalidomide. Type of test: binding.
Sequence of His-tagged CRBN-DDB1 complex (Q96SW2 whole entry): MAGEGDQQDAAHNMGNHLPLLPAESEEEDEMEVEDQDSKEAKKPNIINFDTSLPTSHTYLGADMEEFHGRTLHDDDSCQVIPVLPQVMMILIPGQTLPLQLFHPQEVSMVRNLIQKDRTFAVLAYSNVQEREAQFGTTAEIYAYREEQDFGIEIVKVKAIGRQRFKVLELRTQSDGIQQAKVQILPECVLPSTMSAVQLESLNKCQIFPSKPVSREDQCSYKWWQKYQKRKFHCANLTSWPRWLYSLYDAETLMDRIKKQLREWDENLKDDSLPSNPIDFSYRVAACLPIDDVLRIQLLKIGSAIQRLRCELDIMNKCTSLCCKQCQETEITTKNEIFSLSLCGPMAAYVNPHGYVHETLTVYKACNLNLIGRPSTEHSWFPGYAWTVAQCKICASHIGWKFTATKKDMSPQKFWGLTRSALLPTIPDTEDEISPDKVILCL
Sequence of His-tagged CRBN-DDB1 complex (Q16531 whole entry partner): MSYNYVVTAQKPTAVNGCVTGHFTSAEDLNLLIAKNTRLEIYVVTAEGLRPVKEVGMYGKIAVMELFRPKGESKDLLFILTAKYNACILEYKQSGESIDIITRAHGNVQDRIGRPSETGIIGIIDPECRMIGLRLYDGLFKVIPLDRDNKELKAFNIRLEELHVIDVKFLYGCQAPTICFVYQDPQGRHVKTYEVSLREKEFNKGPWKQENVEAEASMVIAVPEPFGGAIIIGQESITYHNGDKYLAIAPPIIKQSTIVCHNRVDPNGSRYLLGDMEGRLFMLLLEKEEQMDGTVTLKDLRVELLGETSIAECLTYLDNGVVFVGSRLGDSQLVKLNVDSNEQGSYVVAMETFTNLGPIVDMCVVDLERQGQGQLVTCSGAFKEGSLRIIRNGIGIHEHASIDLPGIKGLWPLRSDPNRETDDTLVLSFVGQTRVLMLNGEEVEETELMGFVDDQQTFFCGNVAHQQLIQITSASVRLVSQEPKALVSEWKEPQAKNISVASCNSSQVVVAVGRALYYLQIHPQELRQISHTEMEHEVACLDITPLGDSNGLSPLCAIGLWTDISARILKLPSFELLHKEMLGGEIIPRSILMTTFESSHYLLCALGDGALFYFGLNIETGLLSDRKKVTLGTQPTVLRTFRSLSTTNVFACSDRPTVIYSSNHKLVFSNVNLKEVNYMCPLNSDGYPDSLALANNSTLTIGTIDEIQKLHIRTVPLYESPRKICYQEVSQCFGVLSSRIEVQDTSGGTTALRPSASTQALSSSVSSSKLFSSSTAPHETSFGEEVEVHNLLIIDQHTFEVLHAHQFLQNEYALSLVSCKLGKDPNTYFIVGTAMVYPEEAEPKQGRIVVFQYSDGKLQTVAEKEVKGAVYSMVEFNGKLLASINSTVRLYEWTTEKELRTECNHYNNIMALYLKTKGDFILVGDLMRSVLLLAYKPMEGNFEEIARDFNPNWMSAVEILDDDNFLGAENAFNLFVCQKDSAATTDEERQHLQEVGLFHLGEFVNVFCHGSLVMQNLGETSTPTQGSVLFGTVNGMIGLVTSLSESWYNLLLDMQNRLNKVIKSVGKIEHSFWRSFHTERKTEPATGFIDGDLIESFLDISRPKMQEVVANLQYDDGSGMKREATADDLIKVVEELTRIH
Conditions: not given
The procedure:
Equal volumes of His-tagged CRBN-DDB1 complex (56 nM) was mixed with Eu-cryptate labeled Anti-6HIS-monoclonal antibody (50× dilution from the commercial stock solution, Vender: Cisbio, Cat. #61HI2KLA) in a final buffer containing 20 mM HEPES pH 7.0, 150 mM NaCl, 0.005% Tween-20. […] The mixture were incubated at room temperature for 1 hour. FRET signals were measured on an EnVision plate reader (Perkin Elmer) by exciting at 340 nm and recording emission at both 615 nm as no FRET control and 665 nm as the FRET signals with a 60 microsecond delay. FRET efficiency was calculated as the ratio of fluorescent signals at […]. Quantitative loss of FRET efficiency as a function of compound concentrations was fitted by a four-parameter Logistic Function using GraphPad Prism 7.0 and the IC50 values were reported for each compound.
The compound numbers correspond to the compound numbers in Table 1.
A general note: In TR-FRET formats the signal depends on donor and acceptor labels being close together.
The IC50 is the concentration that inhibits the measured activity by half. `O=C1CCC(N2C(=O)CN=C(c3ccccc3)c3ccccc32)C(=O)N1` (centres unmarked) [I-41] registered an IC50 of 30 to 100 µM.

The test is the same for the next values; noted with them: read-out: CRBN HTRF IC50.
With `CC(C)(C)OC(=O)NCCOCCOCCCc1ccc2c3cccnc3n(C3CCC(=O)NC3=O)c2c1` (centres unmarked) [I-58], the IC50 was in the range of 10 to 30 µM.
As for `CC(C)(C)OC(=O)NCCOCCOCC(=O)NCc1ccc2c(c1)c1cccnc1n2C1CCC(=O)NC1=O` (centres unmarked) [I-36, tert-butyl (2-(2-(2-(((9-(2,6-dioxopiperidin-3-yl)-9H-pyrido[2,3-b]indol-6-yl)methyl)amino)-2-oxoethoxy)ethoxy)ethyl)carbamate], the IC50 was < 10 µM.
Same read-out and setting: with `O=C1CCC(n2c3ccc(C#CCOCCOCCOCc4ccccc4)cc3c3cccnc32)C(=O)N1` (centres unmarked) [I-47] the figure was < 10 µM; with `N#Cc1ccc2c3ccccc3n(C3CCC(=O)NC3=O)c2n1` (centres unmarked) [I-81, 9-(2,6-dioxopiperidin-3-yl)-9H-pyrido[2,3-b]indole-2-carbonitrile], 10 to 30 µM; with `CC(C)(C)OC(=O)NC1CCN(CCc2ccc3c(c2)c2cccnc2n3C2CCC(=O)NC2=O)CC1` (centres unmarked) [I-71, tert-butyl (1-(2-(9-(2,6-dioxopiperidin-3-yl)-9H-pyrido[2,3-b]indol-6-yl)ethyl)piperidin-4-yl)carbamate], < 10 µM.
As to `O=C1CCC(n2c3ccccc3c3c(Br)csc32)C(=O)N1` (centres unmarked) [I-89, 3-(3-bromo-8H-thieno[2,3-b]indol-8-yl)piperidine-2,6-dione], the IC50 was < 10 µM.
The same measure, in the same setting: with `O=C1CCC(n2c3c(c4cccnc42)CN(Cc2ccccc2)CC3)C(=O)N1` (centres unmarked) [I-55, 3-(6-benzyl-7,8-dihydro-5H-pyrrolo[2,3-b:4,5-c′]dipyridin-9(6H)-yl)piperidine-2,6-dione] the figure was 30 to 100 µM; with `CC(C)(C)OC(=O)NCCOCCOCC#Cc1ccc2c(c1)c1cccnc1n2C1CCC(=O)NC1=O` (centres unmarked) [I-63], < 10 µM.
On the same count and under the same terms, with `O=C1CCC(n2c3ccccc3c3ccsc32)C(=O)N1` (centres unmarked) [I-72] the figure was < 10 µM; with `CC(C)(C)OC(=O)NCCOCCOCCCc1ccc2c3ccccc3n(C3CCC(=O)NC3=O)c2n1` (centres unmarked) [I-73], 10 to 30 µM.
With `CCNC(=O)Nc1ccc2c(c1)c1cccnc1n2C1CCC(=O)NC1=O` (centres unmarked) [I-9, 1-(9-(2,6-Dioxopiperidin-3-yl)-9H-pyrido[2,3-b]indol-6-yl)-3-ethylurea], the IC50 is < 10 µM.
Same read-out and setting: with `CC(C)(C)OC(=O)NCCOCCNC(=O)NCc1ccc2c(c1)c1cccnc1n2C1CCC(=O)NC1=O` (centres unmarked) [I-37, tert-butyl (2-(2-(3-((9-(2,6-dioxopiperidin-3-yl)-9H-pyrido[2,3-b]indol-6-yl)methyl)ureido)ethoxy)ethyl)carbamate] the figure was 10 to 30 µM.
On to `O=C1CCC(n2c3cc(F)ccc3c3cccnc32)C(=O)N1` (centres unmarked) [I-101], for which the half-maximal inhibitory concentration (IC50) is < 10 µM.
The same measure, in the same setting: next, `O=C1CCC(n2c3cccc(CCCOCCOCCO)c3c3cccnc32)C(=O)N1` (centres unmarked) [I-51]: < 10 µM; `Nc1ccc2c(c1)c1cccnc1n2C1CCC(=O)NC1=O` (centres unmarked) [I-5, 3-(6-Amino-9H-pyrido[2,3-b]indol-9-yl)piperidine-2,6-dione]: < 10 µM; `O=C1CCC(n2c3ccc(Br)cc3c3cccnc32)C(=O)N1` (centres unmarked) [I-26, 3-(6-Bromo-9H-pyrido[2,3-b]indol-9-yl)piperidine-2,6-dione]: < 10 µM.
Same read-out and setting: with `CC(=O)Nc1ccc2c3ccccc3n(C3CCC(=O)NC3=O)c2n1` (centres unmarked) [I-90, N-(9-(2,6-dioxopiperidin-3-yl)-9H-pyrido[2,3-b]indol-2-yl)acetamide] the figure was 10 to 30 µM.
`CCOC(=O)Nc1ccc2c(c1)c1cccnc1n2C1CCC(=O)NC1=O` (centres unmarked) [I-29, ethyl (9-(2,6-dioxopiperidin-3-yl)-9H-pyrido[2,3-b]indol-6-yl)carbamate]: the IC50 was in the range of 10 to 30 µM.
Still for that read-out and setting: next, `NCc1ccc2c3ccccc3n(C3CCC(=O)NC3=O)c2n1` (centres unmarked) [I-91, 3-(2-(aminomethyl)-9H-pyrido[2,3-b]indol-9-yl)piperidine-2,6-dione]: 30 to 100 µM; `CN(CCCOCC#Cc1ccc2c(c1)c1cccnc1n2C1CCC(=O)NC1=O)C(=O)OC(C)(C)C` (centres unmarked) [I-45]: 10 to 30 µM; `O=C1CCC(n2c3ccccc3c3ccc(F)nc32)C(=O)N1` (centres unmarked) [I-84]: < 10 µM.
Same read-out and setting: next, `Cc1ccnc2c1c1ccccc1n2C1CCC(=O)NC1=O` (centres unmarked) [I-77, 3-(4-methyl-9H-pyrido[2,3-b]indol-9-yl)piperidine-2,6-dione]: < 10 µM; `COc1ccc2c3ccccc3n(C3CCC(=O)NC3=O)c2n1` (centres unmarked) [I-82]: 10 to 30 µM; `COc1nccc2c3ccccc3n(C3CCC(=O)NC3=O)c12` (centres unmarked) [I-65]: 30 to 100 µM.
As for `O=C1CCC(n2c3c(c4cccnc42)CN(C(=O)CCCCCCCCO)CC3)C(=O)N1` (centres unmarked) [I-68, 3-(6-(9-hydroxynonanoyl)-5,6,7,8-tetrahydro-9H-pyrrolo[2,3-b:4,5-c′]dipyridin-9-yl)piperidine-2,6-dione], the IC50 lay within 30 to 100 µM.
On the same count and under the same terms, with `O=C1CCC(n2c3cccc(F)c3c3cccnc32)C(=O)N1` (centres unmarked) [I-100] the figure was < 10 µM; with `O=C1CCC(n2c3ccccc3c3cncnc32)C(=O)N1` (centres unmarked) [I-67], 10 to 30 µM; with `CNc1ccc2c(c1)c1cccnc1n2C1CCC(=O)NC1=O` (centres unmarked) [I-27, 3-(6-(methylamino)-9H-pyrido[2,3-b]indol-9-yl)piperidine-2,6-dione], < 10 µM.
For `O=C1CCC(n2c3ccccc3c3c(CCCOCCOCCO)ccnc32)C(=O)N1` (centres unmarked) [I-48], the IC50 was < 10 µM.
Take `CC(=O)Nc1ccc2c(c1)c1cccnc1n2C1CCC(=O)NC1=O` (centres unmarked) [I-8, N-(9-(2,6-Dioxopiperidin-3-yl)-9H-pyrido[2,3-b]indol-6-yl)acetamide]: the 50% inhibitory concentration (IC50) was < 10 µM.
Take `O=C1CCC(n2c3ccccc3c3c(C#CCOCCOCCOCc4ccccc4)ccnc32)C(=O)N1` (centres unmarked) [I-49]: the 50% inhibitory concentration (IC50) was < 10 µM.
With `O=C1CCC(n2c3ccc(Br)cc3c3ccsc32)C(=O)N1` (centres unmarked) [I-88], the IC50 was < 10 µM.
Same read-out and setting: with `O=C1CCC(n2c3cccc(Br)c3c3ccsc32)C(=O)N1` (centres unmarked) [I-103, 3-(4-bromo-8H-thieno[2,3-b]indol-8-yl)piperidine-2,6-dione] the figure was < 10 µM; with `CC(C)(C)OC(=O)NCCOCC#Cc1ccc2c(c1)c1cccnc1n2C1CCC(=O)NC1=O` (centres unmarked) [I-33, tert-Butyl (2-((3-(9-(2,6-dioxopiperidin-3-yl)-9H-pyrido[2,3-b]indol-6-yl)prop-2-yn-1-yl)oxy)ethyl)carbamate], < 10 µM.
As to `O=C1CCC(n2c3cccc(Br)c3c3cccnc32)C(=O)N1` (centres unmarked) [I-30], the half-inhibitory concentration (IC50) was < 10 µM.
Still for that read-out and setting: next, `O=C1CCC(n2c3ccccc3c3scnc32)C(=O)N1` (centres unmarked) [I-66]: 10 to 30 µM.
As for `O=C1CCC(n2c3ccccc3c3ccccc32)C(=O)N1` (centres unmarked) [I-1, 3-(9H-Carbazol-9-yl)piperidine-2,6-dione], the concentration for half-maximal inhibition (IC50) lay within 10 to 30 µM.
`CC(C)(C)OC(=O)N1CCc2c(c3cccnc3n2C2CCC(=O)NC2=O)C1` (centres unmarked) [I-40, tert-butyl 9-(2,6-dioxopiperidin-3-yl)-7,8-dihydro-5H-pyrrolo[2,3-b:4,5-c′]dipyridine-6(9H)-carboxylate]: the 50% inhibitory concentration (IC50) was 10 to 30 µM.
Same read-out and setting: with `CC(C)(C)OC(=O)NCCOCCOCCCc1cccc2c1c1cccnc1n2C1CCC(=O)NC1=O` (centres unmarked) [I-60] the figure was < 10 µM; with `CC(C)(C)OC(=O)NCCOCCCc1ccc2c(c1)c1cccnc1n2C1CCC(=O)NC1=O` (centres unmarked) [I-34, tert-butyl (2-(3-(9-(2,6-dioxopiperidin-3-yl)-9H-pyrido[2,3-b]indol-6-yl)propoxy)ethyl)carbamate], < 10 µM.
